# Reference: patent US9314464B2, “Compounds and compositions as protein kinase inhibitors” (Novartis AG, priority 2009, dated 2016)
# Columns and labels:
# [1] = Liver Microsomal Clearance Assay, human; assay type: in vitro ADME; conditions: extraction ratio, human liver microsomes
# Method: (§1) Liver Microsomal Clearance Assay
# (§2) The in vitro microsomal clearance assay is designed to assess potential risks associated with hepatic metabolic stability of compounds. The test compound (1 μM) was incubated with liver microsomes (0.5 mg/mL) from different species (mouse, rat, monkey, dog and human) and NADPH (1 mM) in 100 mM potassium phosphate buffer at 37° C. At specific reaction time points (0, 5, 10 and 30 minutes), reaction aliquots were removed and reactions were terminated by addition of ice cold acetonitrile containing mass spectrometry internal standard. The samples were centrifuged and the supernatants were analyzed by LC-MS/MS. In vitro metabolic half-life (t1/2, min) and intrinsic clearance (CLint, μL/min/mg) are based on the rate and extent of metabolism of the test compound as determined by the disappearance of the parent compound from the reaction mixture. These values may be scaled to predict hepatic metabolic clearance rate (CLh, mL/min/kg) and extraction ratio (ER, expressed as a ratio of the predicted hepatic metabolic clearance to hepatic blood flow in that species). In general, compounds with high predicted CLint or ER in vitro are considered to be at high risk for exposure-limiting metabolism in vivo.
# [2] = Liver Microsomal Clearance Assay, mouse; assay type: in vitro ADME; conditions: extraction ratio, mouse liver microsomes
# Method: as §1, §2
# [3] = In Vivo Pharmacokinetics Assay in mouse; conditions: male, Balb/c, plasma; for clearance at 24 h: IV 2 mg/kg
# Method: (§3) Full pharmacokinetics study: Male Balb/c mice (n=3, body weights 22-25 g) or male Wistar rats (n=3, body weights 250-300 g) were administered the test compound intravenously via the lateral tail vein or orally via gavage. The formulation was typically a 2.5 mg/mL solution of the compound in 75% PEG300 and 25% D5W. Six blood samples of 50 μL each were collected serially for 24 h after dosing. The blood samples were centrifuged to separate the plasma. Plasma samples were analyzed and quantified by LC-MS/MS.
# as §3, with “Rapid” for “Full”, “intravenously (IV)” for “intravenously”, “orally (PO)” for “orally”, “Blood” for “The blood”, “and plasma separated and pooled across” for “to separate”, “three animals at each time point per dose route.” for “plasma.”
# For both full and rapid pharmacokinetics studies, the following parameters were calculated by non-compartmental regression analysis using Winnonlin 5.0 software (Pharsight, Mountain View, Calif., USA): plasma clearance (Cl), plasma maximum concentration (Cmax), plasma area-under-the-concentration-time-curve (AUC0-inf), and percent oral bioavailability (F %).
# B-Raf V600E = B-Raf V600E (Homo sapiens (Human), UniProt P15056, V600E); assay: B-Raf V600E/Mek Amplified Luminescence Proximity Homogeneous Assay (B-Raf V600E biochemical); conditions: read-out: BRAF V600E biochemical IC50
# Method: The plate was incubated for 60 minutes at room temperature.
# The B-Raf kinase activity reaction was started by the addition of 10 μl per well of 2×ATP (10 μM) diluted in assay buffer. After 3 hours, the reactions were stopped with the addition of 10 μl of stop reagent (60 mM EDTA, 0.01% Tween20). Phosphorylated product was measured using a rabbit anti-p-MEK (Cell Signaling, #9121) antibody and the Alpha Screen IgG (ProteinA) detection Kit (PerkinElmer #6760617R), by the addition of 30 μl to the well of a mixture of the antibody (1:2000 dilution) and detection beads (1:1000 dilution of both beads) in bead buffer (50 mM Tris, pH 7.5, 0.01% Tween20). The additions were carried out under dark conditions to protect the detection beads from light. A lid was placed on top of the plate and the plate was incubated for 1 hour at room temperature. The luminescence was read on a PerkinElmer Envision instrument. The concentration of each compound for 50% inhibition (IC50) was calculated by non-linear regression using XL Fit data analysis software.
# [4] = 5 mg/kg, PO/IV 5/2 mg/kg, n = 1
# B-Raf V600E, sequence (P15056 whole entry V600E): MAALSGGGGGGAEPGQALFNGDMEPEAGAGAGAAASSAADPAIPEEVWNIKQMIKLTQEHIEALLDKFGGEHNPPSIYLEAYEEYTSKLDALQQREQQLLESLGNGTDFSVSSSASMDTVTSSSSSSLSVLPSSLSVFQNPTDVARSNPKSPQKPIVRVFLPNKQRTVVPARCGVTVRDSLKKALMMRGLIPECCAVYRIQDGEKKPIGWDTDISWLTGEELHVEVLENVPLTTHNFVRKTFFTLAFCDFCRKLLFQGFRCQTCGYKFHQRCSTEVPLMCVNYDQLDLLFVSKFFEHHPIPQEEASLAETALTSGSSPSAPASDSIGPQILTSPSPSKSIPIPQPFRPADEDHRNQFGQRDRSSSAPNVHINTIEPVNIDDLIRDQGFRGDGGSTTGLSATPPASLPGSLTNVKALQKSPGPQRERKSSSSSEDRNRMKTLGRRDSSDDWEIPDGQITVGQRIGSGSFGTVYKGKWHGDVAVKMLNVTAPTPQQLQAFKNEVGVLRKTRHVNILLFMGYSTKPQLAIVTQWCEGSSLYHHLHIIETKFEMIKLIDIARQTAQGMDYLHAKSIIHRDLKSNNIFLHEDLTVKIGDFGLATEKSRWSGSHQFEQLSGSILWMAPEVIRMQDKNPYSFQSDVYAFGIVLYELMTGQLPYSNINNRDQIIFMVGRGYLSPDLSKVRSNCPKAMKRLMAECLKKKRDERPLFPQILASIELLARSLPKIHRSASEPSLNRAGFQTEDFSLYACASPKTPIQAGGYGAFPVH
smiles,measurement,setting,value
"CCCS(=O)(=O)Nc1cc(Cl)cc(-c2nn(C(C)C)cc2-c2ccnc(NC[C@H](C)NC(=O)OC)n2)c1F [Compound 1, Methyl N-[(2S)-1-[(4-{3-[5-chloro-2-fluoro-3-(propane-1-sulfonamido)phenyl]-1-(propan-2-yl)-1H-pyrazol-4-yl}pyrimidin-2-yl)amino]propan-2-yl]carbamate]",ER Human,[1],0.66
same,ER Mouse,[2],0.79
same,bioavailability at 24 h,[3]; [4],46%
same,clearance at 24 h,[3],7 mL/min/kg
same,AUC at 24 h,"[3]; PO 5 mg/kg, n = 1",9.7 µM·h
same,Cmax at 24 h,"[3]; PO 5 mg/kg, n = 1",7400 nM
"COC(=O)N[C@@H](C)CNc1nccc(-c2cn(C(C)C)nc2-c2cc(Cl)cc(NS(C)(=O)=O)c2)n1 [Compound 2, methyl N-[(2S)-1-({4-[3-(3-chloro-5-methanesulfonamidophenyl)-1-(propan-2-yl)-1H-pyrazol-4-yl]pyrimidin-2-yl}amino)propan-2-yl]carbamate]",IC50,B-Raf V600E,0.8 nM
"CCCS(=O)(=O)Nc1cccc(-c2nn(C(C)C)cc2-c2ccnc(NC[C@H](C)NC(=O)OC)n2)c1F [Compound 3, methyl N-[(2S)-1-[(4-{3-[2-fluoro-3-(propane-1-sulfonamido)phenyl]-1-(propan-2-yl)-1H-pyrazol-4-yl}pyrimidin-2-yl)amino]propan-2-yl]carbamate]",ER Human,[1],0.69
same,ER Mouse,[2],0.85
same,bioavailability at 24 h,[3]; [4],6%
same,clearance at 24 h,[3],51 mL/min/kg
same,AUC at 24 h,"[3]; PO 5 mg/kg, n = 1",0.2 µM·h
same,Cmax at 24 h,"[3]; PO 5 mg/kg, n = 1",70 nM
"COC(=O)N[C@@H](C)CNc1nccc(-c2cn(C(C)C)nc2-c2cccc(NS(C)(=O)=O)c2F)n1 [Compound 4, methyl N-[(2S)-1-({4-[3-(2-fluoro-3-methanesulfonamidophenyl)-1-(propan-2-yl)-1H-pyrazol-4-yl]pyrimidin-2-yl}amino)propan-2-yl]carbamate]",IC50,B-Raf V600E,2.3 nM
same,ER Human,[1],<0.31
same,ER Mouse,[2],0.40
same,bioavailability at 24 h,"[3]; 10 mg/kg, PO/IV 10/2 mg/kg",36 ± 6%
same,clearance at 24 h,[3],41 ± 9 mL/min/kg
same,AUC at 24 h,[3]; PO 10 mg/kg,3 ± 0.5 µM·h
same,Cmax at 24 h,[3]; PO 10 mg/kg,2000 ± 500 nM
"CCCS(=O)(=O)Nc1cc(Cl)cc(-c2nn(C(C)C)cc2-c2ccnc(NC[C@H](C)NC(=O)OC)n2)c1 [Compound 5, methyl N-[(2S)-1-[(4-{3-[3-chloro-5-(propane-1-sulfonamido)phenyl]-1-(propan-2-yl)-1H-pyrazol-4-yl}pyrimidin-2-yl)amino]propan-2-yl]carbamate]",IC50,B-Raf V600E,0.2 nM
"COC(=O)N[C@@H](C)CNc1nccc(-c2cn(C(C)C)nc2-c2c(F)ccc(NS(C)(=O)=O)c2F)n1 [Compound 6, methyl N-[(2S)-1-({4-[3-(2,6-difluoro-3-methanesulfonamidophenyl)-1-(propan-2-yl)-1H-pyrazol-4-yl]pyrimidin-2-yl}amino)propan-2-yl]carbamate]",IC50,B-Raf V600E,3.9 nM
same,ER Human,[1],0.69
same,bioavailability at 24 h,"[3]; 10 mg/kg, PO/IV 10/2 mg/kg",15 ± 3%
same,clearance at 24 h,[3],61 ± 6 mL/min/kg
same,AUC at 24 h,[3]; PO 10 mg/kg,1.1 ± 0.2 µM·h
same,Cmax at 24 h,[3]; PO 10 mg/kg,600 ± 20 nM
"COC(=O)N[C@@H](C)CNc1nccc(-c2cn(C(C)C)nc2-c2cc(F)cc(NS(C)(=O)=O)c2F)n1 [Compound 10, methyl N-[(2S)-1-({4-[3-(2,5-difluoro-3-methanesulfonamidophenyl)-1-(propan-2-yl)-1H-pyrazol-4-yl]pyrimidin-2-yl}amino)propan-2-yl]carbamate]",IC50,B-Raf V600E,0.6 nM
"CCn1cc(-c2ccnc(NC[C@H](C)NC(=O)OC)n2)c(-c2cc(Cl)cc(NS(C)(=O)=O)c2F)n1 [Compound 11, methyl N-[(2S)-1-({4-[3-(5-chloro-2-fluoro-3-methanesulfonamidophenyl)-1-ethyl-1H-pyrazol-4-yl]pyrimidin-2-yl}amino)propan-2-yl]carbamate]",IC50,B-Raf V600E,0.5 nM
"COC(=O)N[C@@H](C)CNc1nccc(-c2cn(C(C)C)nc2-c2cc(F)cc(NS(C)(=O)=O)c2Cl)n1 [Compound 15, Methyl N-[(2S)-1-({4-[3-(2-chloro-5-fluoro-3-methanesulfonamidophenyl)-1-(propan-2-yl)-1H-pyrazol-4-yl]pyrimidin-2-yl}amino)propan-2-yl]carbamate]",IC50,B-Raf V600E,1.1 nM
"COC(=O)N[C@@H](C)CNc1nccc(-c2cn(C(C)C)nc2-c2ccnc(NS(C)(=O)=O)c2F)n1 [Compound 16, methyl N-[(2S)-1-({4-[3-(3-fluoro-2-methanesulfonamidopyridin-4-yl)-1-(propan-2-yl)-1H-pyrazol-4-yl]pyrimidin-2-yl}amino)propan-2-yl]carbamate]",IC50,B-Raf V600E,24 nM
"COC(=O)N[C@@H](C)CNc1nccc(-c2cn(C(C)C)nc2-c2ccc(F)c(NS(C)(=O)=O)c2F)n1 [Compound 19, methyl N-[(2S)-1-({4-[3-(2,4-difluoro-3-methanesulfonamidophenyl)-1-(propan-2-yl)-1H-pyrazol-4-yl]pyrimidin-2-yl}amino)propan-2-yl]carbamate]",IC50,B-Raf V600E,6.1 nM
"CCS(=O)(=O)Nc1c(F)ccc(-c2nn(C(C)C)cc2-c2ccnc(NC[C@H](C)NC(=O)OC)n2)c1F [Compound 26, methyl N-[(2S)-1-({4-[3-(3-ethanesulfonamido-2,4-difluorophenyl)-1-(propan-2-yl)-1H-pyrazol-4-yl]pyrimidin-2-yl}amino)propan-2-yl]carbamate]",IC50,B-Raf V600E,1.7 nM
COC(=O)N[C@@H](C)CNc1nccc(-c2cn(C(C)C)nc2-c2cc(NS(C)(=O)=O)c(C)c(OC)c2)n1 [Compound 27],IC50,B-Raf V600E,390 nM
"CC(C)n1cc(-c2ccnc(NCCN(C)C)n2)c(-c2cc(Cl)cc(NS(C)(=O)=O)c2F)n1 [Compound 28, N-{5-chloro-3-[4-(2-{[2-(dimethylamino)ethyl]amino}pyrimidin-4-yl)-1-(propan-2-yl)-1H-pyrazol-3-yl]-2-fluorophenyl}methanesulfonamide]",IC50,B-Raf V600E,90 nM
"CNc1nccc(-c2cn(C(C)C)nc2-c2cc(Cl)cc(NS(C)(=O)=O)c2F)n1 [Compound 29, N-(5-chloro-2-fluoro-3-{4-[2-(methylamino)pyrimidin-4-yl]-1-(propan-2-yl)-1H-pyrazol-3-yl}phenyl)methanesulfonamide]",IC50,B-Raf V600E,8 nM
"CC(C)n1cc(-c2ccnc(N)n2)c(-c2cc(Cl)cc(NS(C)(=O)=O)c2F)n1 [Compound 30, N-{3-[4-(2-aminopyrimidin-4-yl)-1-(propan-2-yl)-1H-pyrazol-3-yl]-5-chloro-2-fluorophenyl}methanesulfonamide]",IC50,B-Raf V600E,4.3 nM
"COC(=O)N[C@@H](C)CNc1nccc(-c2c[nH]nc2-c2cc(Cl)cc(NS(C)(=O)=O)c2F)n1 [Compound 31, Methyl N-[(2S)-1-({4-[3-(5-chloro-2-fluoro-3-methanesulfonamidophenyl)-1H-pyrazol-4-yl]pyrimidin-2-yl}amino)propan-2-yl]carbamate]",IC50,B-Raf V600E,0.8 nM
"COC(=O)NC[C@H](C)Nc1nccc(-c2cn(C(C)C)nc2-c2cc(Cl)cc(NS(C)(=O)=O)c2F)n1 [Compound 32, Methyl N-[(2S)-2-({4-[3-(5-chloro-2-fluoro-3-methanesulfonamidophenyl)-1-(propan-2-yl)-1H-pyrazol-4-yl]pyrimidin-2-yl}amino)propyl]carbamate]",IC50,B-Raf V600E,2.9 nM
"CCCS(=O)(=O)Nc1c(F)ccc(-c2nn(C(C)C)cc2-c2ccnc(NC[C@H](C)NC(=O)OC)n2)c1F [Compound 34, methyl N-[(2S)-1-[(4-{3-[2,4-difluoro-3-(propane-1-sulfonamido)phenyl]-1-(propan-2-yl)-1H-pyrazol-4-yl}pyrimidin-2-yl)amino]propan-2-yl]carbamate]",IC50,B-Raf V600E,2.7 nM
